Holding throughout (test): NCI-60 cell line screen, 48 h
The subject of assay [1] is 786-0 renal.
In assay [2] the test system is CCRF-CEM leukemia.
Assay [3] deals with RPMI-8226 leukemia.
The test system of assay [4] is RXF 393 renal.
Assay [5] deals with SK-MEL-28 melanoma.
The subject of assay [6] is TK-10 renal.
For assay [7], the system named is U251 CNS.
Assay [8] has as its system UO-31 renal.

The structures appear in SMILES notation.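 Assay format: 96-well plates, 48-hour exposure. GI50: concentration for 50% inhibition of growth. TGI denotes the concentration required for complete inhibition of growth.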

Consider `CC(=O)/C=C/c1ccc(C)cc1`, for which the TGI in assay [1], in assay [2], in assay [3], in assay [4], in assay [5] and in assay [6] was greater than 100 µM in each case. In addition, the TGI in assay [7] and in assay [8] was greater than 100 µM in each case.

With `O=c1c2ccccc2nc(-c2cccc(Cl)c2)n1NCC1(O)OCC(O)C(O)C1O` (stereo not given), the TGI in assay [1], in assay [2], in assay [3], in assay [4], in assay [5] and in assay [7] was greater than 100 µM in each case. The compound further yielded a TGI in assay [8] greater than 100 µM.

Regarding `O=C(/C=C/c1ccccc1Cl)c1ccc(Cl)cc1Cl`, the TGI is 31.4 µM in assay [1]; 17.4 µM in assay [2]; 37.5 µM in assay [3]; 24.8 µM in assay [5]; 31.7 µM in assay [6]; 25.5 µM in assay [7]. The compound further had a TGI in assay [8] of 36.9 µM.

With `Cc1ccc(Oc2ccc([N+](=O)[O-])cc2[N+](=O)[O-])c(C)c1`, the TGI in assay [1] is greater than 100 µM; in assay [2], greater than 100 µM; in assay [3], 97.7 µM; in assay [4] it was 89.7 µM; in assay [5], greater than 100 µM; in assay [6] it was greater than 100 µM. The TGI in assay [7] and in assay [8] was greater than 100 µM throughout.

Regarding `COc1cc2c(cn1)[nH]c1ccccc12`, the TGI in assay [1], in assay [2], in assay [3], in assay [5], in assay [6] and in assay [7] was greater than 100 µM in each case. In assay [8], this compound returned a TGI greater than 100 µM.

With `C1=Nc2ccccc2C=Nc2ccccc2C=Nc2ccccc2C=Nc2ccccc21.[Cl-].[Pt+2]`, the GI50 in assay [1] is 32.2 µM; in assay [2], 14.9 µM; in assay [3], 5.63 µM; in assay [5], 14.8 µM; in assay [6], 45.7 µM; in assay [7] it was 10.5 µM. Besides, in assay [8], the GI50 is 20.8 µM. Besides, the TGI in assay [1] is 97.1 µM; in assay [2], 67.2 µM; in assay [3] it was 35.6 µM; in assay [5], 64.4 µM; in assay [6], greater than 100 µM; in assay [7], 27.5 µM. For the same compound, the TGI in assay [8] came to 45.5 µM.

In the case of `Cc1c2c(cc3c(=O)ccn(CCN(C)C)c13)c(=O)ccn2CCN(C)C`, the TGI in assay [1] came out at 17.5 µM; in assay [2], 27.9 µM; in assay [4], 28.9 µM; in assay [5] it was 35.5 µM; in assay [6], 51.3 µM; in assay [7] it was 23 µM. The TGI in assay [8] stood at 34.3 µM.

`Cc1cccc(C)c1NC(=O)CCc1n[nH]c(=S)o1`: the TGI was greater than 100 µM in assay [1]; greater than 100 µM in assay [2]; 56.7 µM in assay [3]; greater than 100 µM in assay [5]; greater than 100 µM in assay [6]; greater than 100 µM in assay [7]. Also, in assay [8], the TGI was greater than 100 µM.

With `Cc1ccc2c(c1)CNc1ccc(C)cc1CN2`, the TGI in assay [1], in assay [2], in assay [3], in assay [7] and in assay [8] was greater than 100 µM each time.

As to `COc1ccc(-c2c(N)[n+]([O-])c3ccccc3[n+]2[O-])cc1OC`, the TGI in assay [1], in assay [3], in assay [5], in assay [7] and in assay [8] was greater than 100 µM throughout.

`COc1cc(Nc2nc3ccc(C(F)(F)F)cc3nc2-c2ccccc2)cc(OC)c1OC`: the TGI in assay [1], in assay [2], in assay [4], in assay [5], in assay [6] and in assay [7] was greater than 100 µM each time. In assay [8], this compound had a TGI of 55.7 µM.

As for `NNC(=O)/C(NC(=O)c1ccccc1)=C(\N)c1ccc(Cl)cc1`, the TGI in assay [1], in assay [2], in assay [3], in assay [4], in assay [5] and in assay [6] was greater than 100 µM each time. For the same compound, the TGI in assay [7] and in assay [8] was greater than 100 µM in each case.

As to `N#CC1C2CCC3(CC2CCN1C(=O)c1ccccc1)OCCO3` (stereo not given), the TGI in assay [1], in assay [2], in assay [3], in assay [4], in assay [5] and in assay [6] was greater than 100 µM throughout. The TGI in assay [7] and in assay [8] was greater than 100 µM throughout.

Take `O=C(NCc1ccncc1)C1COc2cc(-c3cc(=O)c4ccccc4o3)ccc2O1` (stereo not given): the TGI in assay [1], in assay [2], in assay [4], in assay [5], in assay [6] and in assay [7] was greater than 100 µM in each case. The compound further came in with a TGI in assay [8] greater than 100 µM.

On to `CC(C)CN(CC(C)C)C(=O)C1CCCC[C@@H]1C(=O)O` (stereo not given in full), for which the TGI in assay [1], in assay [2], in assay [3], in assay [5], in assay [6] and in assay [7] was greater than 100 µM each time. Also, the TGI in assay [8] was greater than 100 µM.

With `O=c1c2cccnc2ncn1CCN1CCCC1`, the TGI in assay [1], in assay [2], in assay [4], in assay [5], in assay [6] and in assay [7] was greater than 100 µM each time. The same compound came in with a TGI in assay [8] greater than 100 µM.

As to `Cn1cnc([N+](=O)[O-])c1Sc1nnnn1-c1ccccc1`, the TGI in assay [1] came out at 30.5 µM; in assay [2], 7.12 µM; in assay [3], 52.6 µM; in assay [5], 28.6 µM; in assay [6], 32.4 µM; in assay [7] it was 26 µM. Besides, the TGI in assay [8] was found to be 27.9 µM.

Regarding `CC/C=C/c1cc2cc[nH]c2c2c1C(C)C[C@@H]2C` (stereo not given in full), the TGI in assay [1] was 36.4 µM; in assay [2], 61.9 µM; in assay [3], 53.4 µM; in assay [4], 41.3 µM; in assay [5] it was 84.4 µM; in assay [6], greater than 100 µM. Besides, the values for the TGI in assay [7] and in assay [8] were 51.2 µM and 69.6 µM, respectively.

Regarding `C=CCn1cc(C(=O)NC(=O)NCCCCCOC(=O)CCCCCCCCCCC(=O)OCCCCCNC(=O)NC(=O)c2cn(CC=C)c(=O)n(C)c2=O)c(=O)n(C)c1=O`, the TGI in assay [1], in assay [2], in assay [3], in assay [4], in assay [5] and in assay [6] was greater than 100 µM in each case. Further, the TGI in assay [7] and in assay [8] was greater than 100 µM in each case.

For the compound `CC1(O)CCC2(C#N)CCC1C2O` (stereo not given), the TGI was greater than 100 µM in assay [1]; greater than 100 µM in assay [2]; 54.6 µM in assay [3]; greater than 100 µM in assay [4]; greater than 100 µM in assay [5]; greater than 100 µM in assay [6]. Besides, the TGI in assay [7] and in assay [8] was greater than 100 µM in each case.

As for `S=c1nc(N2CCCCC2)ss1`, the TGI in assay [1] was 48.1 µM; in assay [2], 46.4 µM; in assay [3] it was 18 µM; in assay [4], 33.4 µM; in assay [5], 36.4 µM; in assay [6] it was greater than 100 µM. Moreover, the TGI in assay [7] is 38 µM; in assay [8], 39.6 µM.

With `C1COCCOCCOCCOCCO1.CC(=O)[CH-]C(C)=O.CC(=O)[CH-]C(C)=O.CC(=O)[CH-]C(C)=O.[V]`, the GI50 is 2.96 µM in assay [1]; 19.1 µM in assay [2]; 20.5 µM in assay [3]; 1.63 µM in assay [4]; 14.1 µM in assay [6]; 20.6 µM in assay [7]. In addition, the GI50 in assay [8] was 32.5 µM. The TGI in assay [1] came out at 12.9 µM; in assay [2], 41.3 µM; in assay [3], 50 µM; in assay [4], 3.26 µM; in assay [5], 23.9 µM; in assay [6], 52 µM. Moreover, the TGI in assay [7] amounted to 52.8 µM; in assay [8], 61.4 µM.

Regarding `CSc1ncnc2c1CCN2`, the GI50 in assay [1], in assay [5] and in assay [6] was greater than 100 µM each time. For the same compound, the TGI in assay [1], in assay [5], in assay [6] and in assay [8] was greater than 100 µM in each case.

Consider `COc1cc(/C=C(\OC(C)=O)c2ccc3c(c2)OCO3)cc(OC)c1OC`, for which the TGI in assay [1] is greater than 100 µM; in assay [2], greater than 100 µM; in assay [3], 76.6 µM; in assay [4], greater than 100 µM; in assay [5], 41.9 µM; in assay [6], greater than 100 µM. The TGI came out at 47.4 µM in assay [7] and 28.2 µM in assay [8].

Regarding `N#C/C(=C\c1ccc(C(O)P(=O)(O)O)cc1)C(N)=O` (stereo not given), the TGI in assay [1], in assay [2], in assay [3], in assay [5], in assay [6] and in assay [7] was greater than 100 µM throughout. In assay [8], this compound showed a TGI greater than 100 µM.
